Counter-ions that a name gives are not always drawn. Like-named read-outs stand apart in the source and are kept apart here.
Legend:
[1] = system: fibrin- and LPS-induced microglia activation; experiment: cells; format: cell-based, rat; details: quadrant by fibrin and LPS inhibition, HTS at 10 μM
primary rat microglia [2] = experiment: Cell toxicity (dead cells, size <150 μm2) in coated fibrin (cFib) assay; details: primary microglia HTS, fibrin assay, dead cells (size <150 μm2);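 note: share of dead cells sized under 150 µm2 at 10 µM in fibrin-stimulated microglia HTS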
[3] = system: fibrin-induced microglia activation; experiment: Image-based assay of fibrin-induced microglia activation (HTS and dose response); format: cell-based, rat; details: primary microglia HTS, fibrin stimulation, compounds at 10 μM; for inhibition at 10 µM: Rattus norvegicus, Microglia, read-out: Fibrin % inhibition
[4] = system: LPS-induced microglia activation; experiment: Image-based assay of LPS-induced microglia activation (HTS and dose response); format: cell-based, rat; details: primary microglia HTS, LPS stimulation, compounds at 10 μM; for inhibition at 10 µM: Rattus norvegicus, Microglia, read-out: LPS % inhibition
primary rat microglia [5] = system: primary rat microglia

CC(=O)Nc1cc([As](=O)(O)O)ccc1O [Acetarsol]
Quadrant (FIG. 5b) [1]: Q4
Fibrin % cell toxicity (primary rat microglia [2]): 0%
inhibition at 10 µM [3]: -12%
inhibition at 10 µM [4]: 13%
LPS % cell toxicity (primary rat microglia [5]; rat): 0%

CC(=O)NO [Acetohydroxamic Acid]
Quadrant (FIG. 5b) [1]: Q4
Fibrin % cell toxicity (primary rat microglia [2]): 0%
inhibition at 10 µM [3]: -3%
inhibition at 10 µM [4]: 12%
LPS % cell toxicity (primary rat microglia [5]; rat): 0%

CC(=O)Nc1c(I)cc(I)c(C(=O)O)c1I [Acetrizoic acid]
Quadrant (FIG. 5b) [1]: Q4
Fibrin % cell toxicity (primary rat microglia [2]): 1%
inhibition at 10 µM [3]: 14%
inhibition at 10 µM [4]: 9%
LPS % cell toxicity (primary rat microglia [5]; rat): 0%

CC(=O)N[C@@H](CC(C)C)C(=O)O [Acetyl-l-leucine]
Quadrant (FIG. 5b) [1]: Q4
Fibrin % cell toxicity (primary rat microglia [2]): 5%
inhibition at 10 µM [3]: -10%
inhibition at 10 µM [4]: 45%
LPS % cell toxicity (primary rat microglia [5]; rat): 3%

CC(=O)Oc1ccccc1C(=O)O [Acetylsalicylic acid]
Quadrant (FIG. 5b) [1]: Q4
Fibrin % cell toxicity (primary rat microglia [2]): 1%
inhibition at 10 µM [3]: -21%
inhibition at 10 µM [4]: 17%
LPS % cell toxicity (primary rat microglia [5]; rat): 0%

CC(=O)NCCCCCC(=O)O [Acexamic Acid]
Quadrant (FIG. 5b) [1]: Q4
Fibrin % cell toxicity (primary rat microglia [2]): 1%
inhibition at 10 µM [3]: -25%
inhibition at 10 µM [4]: 13%
LPS % cell toxicity (primary rat microglia [5]; rat): 0%

Nc1nc2c(ncn2COCCO)c(=O)[nH]1 [Aciclovir]
Quadrant (FIG. 5b) [1]: Q4
Fibrin % cell toxicity (primary rat microglia [2]): 1%
inhibition at 10 µM [3]: -20%
inhibition at 10 µM [4]: 3%
LPS % cell toxicity (primary rat microglia [5]; rat): 1%

Cc1cnc(C(=O)O)c[n+]1[O-] [Acipimox]
Quadrant (FIG. 5b) [1]: Q4
Fibrin % cell toxicity (primary rat microglia [2]): 1%
inhibition at 10 µM [3]: -11%
inhibition at 10 µM [4]: 20%
LPS % cell toxicity (primary rat microglia [5]; rat): 0%

CCN1C[C@]2(COC)[C@H](O)C[C@H](OC)[C@@]34[C@@H]5C[C@@]6(O)[C@H](OC(=O)c7ccccc7)[C@@H]5[C@@](OC(C)=O)([C@@H]([C@H](OC)[C@H]23)[C@@H]14)[C@@H](O)[C@@H]6OC [Aconitine]
Quadrant (FIG. 5b) [1]: Q4
Fibrin % cell toxicity (primary rat microglia [2]): 0%
inhibition at 10 µM [3]: -23%
inhibition at 10 µM [4]: 12%
LPS % cell toxicity (primary rat microglia [5]; rat): 0%

CC(=O)Nc1ccc(CC(=O)O)cc1 [Actarit]
Quadrant (FIG. 5b) [1]: Q4
Fibrin % cell toxicity (primary rat microglia [2]): 1%
inhibition at 10 µM [3]: 11%
inhibition at 10 µM [4]: 9%
LPS % cell toxicity (primary rat microglia [5]; rat): 0%

COc1ccc(-c2ccc3cc(C(=O)O)ccc3c2)cc1C12CC3CC(CC(C3)C1)C2 [Adapalene]
Quadrant (FIG. 5b) [1]: Q4
Fibrin % cell toxicity (primary rat microglia [2]): 2%
inhibition at 10 µM [3]: -12%
inhibition at 10 µM [4]: 45%
LPS % cell toxicity (primary rat microglia [5]; rat): 4%

Nc1ncnc2nc[nH]c12 [Adenine]
Quadrant (FIG. 5b) [1]: Q4
Fibrin % cell toxicity (primary rat microglia [2]): 1%
inhibition at 10 µM [3]: -7%
inhibition at 10 µM [4]: 22%
LPS % cell toxicity (primary rat microglia [5]; rat): 1%

Nc1ncnc2c1ncn2[C@@H]1O[C@H](COP(=O)(O)O)[C@@H](O)[C@H]1O [Adenosine Phosphate]
Quadrant (FIG. 5b) [1]: Q4
Fibrin % cell toxicity (primary rat microglia [2]): 1%
Fibrin % inhibition ([3]; 10 µM): 6%
LPS % inhibition ([4]; 10 µM): 31%
LPS % cell toxicity (primary rat microglia [5]; rat): 2%

Nc1ncnc2c1ncn2[C@@H]1O[C@H](COP(=O)(O)O)[C@@H](O)[C@H]1O [Adenosine monophosphate]
Quadrant (FIG. 5b) [1]: Q4
Fibrin % cell toxicity (primary rat microglia [2]): 1%
Fibrin % inhibition ([3]; 10 µM): −30%
LPS % inhibition ([4]; 10 µM): 4%
LPS % cell toxicity (primary rat microglia [5]; rat): 0%

Nc1ncnc2c1ncn2[C@@H]1O[C@H](CO)[C@@H](O)[C@H]1O [Adenosine]
Quadrant (FIG. 5b) [1]: Q4
Fibrin % cell toxicity (primary rat microglia [2]): 1%
inhibition at 10 µM [3]: -6%
inhibition at 10 µM [4]: 3%
LPS % cell toxicity (primary rat microglia [5]; rat): 1%

CCN(CC)CCOC(=O)C(c1ccccc1)c1ccccc1 [Adiphenine Hydrochloride]
Quadrant (FIG. 5b) [1]: Q4
Fibrin % cell toxicity (primary rat microglia [2]): 1%
inhibition at 10 µM [3]: -30%
inhibition at 10 µM [4]: 12%
LPS % cell toxicity (primary rat microglia [5]; rat): 0%

CNCC(=O)c1ccc(O)c(O)c1.Cl [Adrenolone Hydrochloride]
Quadrant (FIG. 5b) [1]: Q4
Fibrin % cell toxicity (primary rat microglia [2]): 0%
Fibrin % inhibition [3]: 28%
LPS % inhibition [4]: 32%
LPS % cell toxicity (primary rat microglia [5]): 0%

CC(=O)NC(Cc1ccccc1)C(=O)O (stereo not shown) [Afalanine]
Quadrant (FIG. 5b) [1]: Q4
Fibrin % cell toxicity (primary rat microglia [2]): 1%
inhibition at 10 µM [3]: 0%
inhibition at 10 µM [4]: 10%
LPS % cell toxicity (primary rat microglia [5]; rat): 0%

NC(=O)c1ccc([N+](=O)[O-])cc1Cl [Aklomide]
Quadrant (FIG. 5b) [1]: Q4
Fibrin % cell toxicity (primary rat microglia [2]): 0%
inhibition at 10 µM [3]: -18%
inhibition at 10 µM [4]: -2%
LPS % cell toxicity (primary rat microglia [5]; rat): 0%

CC(N)C(=O)OC(C)(C)Cc1ccc(Cl)cc1.Cl (stereo not shown) [Alaproclate Hydrochloride, Alaproclate]
Quadrant (FIG. 5b) [1]: Q4
Fibrin % cell toxicity (primary rat microglia [2]): 1%
Fibrin % inhibition [3]: −7%
LPS % inhibition [4]: 15%
LPS % cell toxicity (primary rat microglia [5]): 0%

C=C1/C(=C\C=C2/CCC[C@]3(C)[C@@H]([C@H](C)CCCC(C)C)CC[C@@H]23)C[C@@H](O)C[C@@H]1O [Alfacalcidol]
Quadrant (FIG. 5b) [1]: Q4
Fibrin % cell toxicity (primary rat microglia [2]): 1%
inhibition at 10 µM [3]: -26%
inhibition at 10 µM [4]: 4%
LPS % cell toxicity (primary rat microglia [5]; rat): 0%

COc1cc2nc(N(C)CCCNC(=O)C3CCCO3)nc(N)c2cc1OC.Cl (stereo not shown) [Alfuzosin Hydrochloride, Alfuzosin]
Quadrant (FIG. 5b) [1]: Q4
Fibrin % cell toxicity (primary rat microglia [2]): 1%
Fibrin % inhibition [3]: 1%
LPS % inhibition [4]: 18%
LPS % cell toxicity (primary rat microglia [5]): 0%

CC(CN(C)C)CN1c2ccccc2Sc2ccccc21 (stereo not shown) [Alimemazine]
Quadrant (FIG. 5b) [1]: Q4
Fibrin % cell toxicity (primary rat microglia [2]): 1%
inhibition at 10 µM [3]: 32%
inhibition at 10 µM [4]: 39%
LPS % cell toxicity (primary rat microglia [5]; rat): 0%

COCCCOc1cc(C[C@@H](C[C@H](N)[C@@H](O)C[C@H](C(=O)NCC(C)(C)C(N)=O)C(C)C)C(C)C)ccc1OC [Aliskiren]
Quadrant (FIG. 5b) [1]: Q4
Fibrin % cell toxicity (primary rat microglia [2]): 1%
inhibition at 10 µM [3]: 2%
inhibition at 10 µM [4]: 21%
LPS % cell toxicity (primary rat microglia [5]; rat): 0%

NC(=O)NC1NC(=O)NC1=O (stereo not shown) [Allantoin]
Quadrant (FIG. 5b) [1]: Q4
Fibrin % cell toxicity (primary rat microglia [2]): 1%
inhibition at 10 µM [3]: -21%
inhibition at 10 µM [4]: 6%
LPS % cell toxicity (primary rat microglia [5]; rat): 0%

C=CCN=C=S [Allylisothiocyanate]
Quadrant (FIG. 5b) [1]: Q4
Fibrin % cell toxicity (primary rat microglia [2]): 1%
inhibition at 10 µM [3]: 11%
inhibition at 10 µM [4]: 18%
LPS % cell toxicity (primary rat microglia [5]; rat): 0%

C=CCNC(N)=S [Allylthiourea]
Quadrant (FIG. 5b) [1]: Q4
Fibrin % cell toxicity (primary rat microglia [2]): 1%
inhibition at 10 µM [3]: -7%
inhibition at 10 µM [4]: 11%
LPS % cell toxicity (primary rat microglia [5]; rat): 0%

O=C1c2c(O)cccc2C([C@@H]2O[C@H](CO)[C@@H](O)[C@H](O)[C@H]2O)c2cc(CO)cc(O)c21 (stereo partly shown) [Aloin]
Quadrant (FIG. 5b) [1]: Q4
Fibrin % cell toxicity (primary rat microglia [2]): 1%
inhibition at 10 µM [3]: -35%
inhibition at 10 µM [4]: 14%
LPS % cell toxicity (primary rat microglia [5]; rat): 0%

CC1(C)C(C=C(Cl)Cl)C1C(=O)OC(C#N)c1cccc(Oc2ccccc2)c1 (stereo not drawn) [Alpha-cypermethrin]
Quadrant (FIG. 5b) [1]: Q4
Fibrin % cell toxicity (primary rat microglia [2]): 1%
inhibition at 10 µM [3]: -15%
inhibition at 10 µM [4]: 11%
LPS % cell toxicity (primary rat microglia [5]; rat): 0%

Cc1nnc2n1-c1ccc(Cl)cc1C(c1ccccc1)=NC2 [Alprazolam]
Quadrant (FIG. 5b) [1]: Q4
Fibrin % cell toxicity (primary rat microglia [2]): 1%
inhibition at 10 µM [3]: 33%
inhibition at 10 µM [4]: 20%
LPS % cell toxicity (primary rat microglia [5]; rat): 0%

C=CCSCC1Nc2cc(Cl)c(S(N)(=O)=O)cc2S(=O)(=O)N1 (stereo not shown) [Althiazide]
Quadrant (FIG. 5b) [1]: Q4
Fibrin % cell toxicity (primary rat microglia [2]): 1%
inhibition at 10 µM [3]: -11%
inhibition at 10 µM [4]: 12%
LPS % cell toxicity (primary rat microglia [5]; rat): 1%

C=CC[C@]1(O)CC[C@H]2[C@@H]3CCC4=CC(=O)CCC4=C3C=C[C@@]21C [Altrenogest]
Quadrant (FIG. 5b) [1]: Q4
Fibrin % cell toxicity (primary rat microglia [2]): 1%
inhibition at 10 µM [3]: 6%
inhibition at 10 µM [4]: 15%
LPS % cell toxicity (primary rat microglia [5]; rat): 0%

CCN(CCCc1ccccc1)CCCc1ccccc1 [Alverine]
Quadrant (FIG. 5b) [1]: Q4
Fibrin % cell toxicity (primary rat microglia [2]): 0%
inhibition at 10 µM [3]: -17%
inhibition at 10 µM [4]: 6%
LPS % cell toxicity (primary rat microglia [5]; rat): 0%

Nc1c(Br)cc(Br)cc1CN[C@H]1CC[C@H](O)CC1 [Ambroxol Hydrochloride]
Quadrant (FIG. 5b) [1]: Q4
Fibrin % cell toxicity (primary rat microglia [2]): 0%
inhibition at 10 µM [3]: -19%
inhibition at 10 µM [4]: 9%
LPS % cell toxicity (primary rat microglia [5]; rat): 0%

NCC[C@H](O)C(=O)N[C@@H]1C[C@H](N)[C@@H](O[C@H]2O[C@H](CN)[C@@H](O)[C@H](O)[C@H]2O)[C@H](O)[C@H]1O[C@H]1O[C@H](CO)[C@@H](O)[C@H](N)[C@H]1O.O=S(=O)(O)O.O=S(=O)(O)O [Amikacin Sulfate]
Quadrant (FIG. 5b) [1]: Q4
Fibrin % cell toxicity (primary rat microglia [2]): 1%
Fibrin % inhibition [3]: 3%
LPS % inhibition [4]: 1%
LPS % cell toxicity (primary rat microglia [5]): 0%

N=C(N)NN [Aminoguanidine]
Quadrant (FIG. 5b) [1]: Q4
Fibrin % cell toxicity (primary rat microglia [2]): 0%
inhibition at 10 µM [3]: -25%
inhibition at 10 µM [4]: 12%
LPS % cell toxicity (primary rat microglia [5]; rat): 0%

Nc1ccc(C(=O)NCC(=O)O)cc1 [Aminohippuric Acid]
Quadrant (FIG. 5b) [1]: Q4
Fibrin % cell toxicity (primary rat microglia [2]): 1%
inhibition at 10 µM [3]: -7%
inhibition at 10 µM [4]: 16%
LPS % cell toxicity (primary rat microglia [5]; rat): 1%

NCC(O)CC(=O)O (stereo not shown) [Aminohydroxybutyric Acid]
Quadrant (FIG. 5b) [1]: Q4
Fibrin % cell toxicity (primary rat microglia [2]): 1%
Fibrin % inhibition [3]: −4%
LPS % inhibition [4]: 17%
LPS % cell toxicity (primary rat microglia [5]): 0%
